Like-named read-outs stand apart in the source and are kept apart here.
Experiments:
[1] = in vivo; cited from earlier work
healthy subjects [2] = format: in vivo, human
Protocol: Ten healthy subjects of both sexes, aged 18 through 43 were treated with DDAVP and 4-Asn-DDAVP.
One to two hours after a normal breakfast, the subjects were hydrated by drinking the volume of tap water that corresponded to 2% of their body weight. Every 15 minutes, urine was collected and its volume and osmolality were measured using an Advanced Osmometer Model 3D11. In order to overhydrate themselves, the subjects substituted their loss of fluid by drinking a volume of tap water that corresponded to the amount of urine collected. After about 40 to 45 minutes, the diuresis increased to about 200 milliliters per 15 minute period. At that time, DDAVP or 4-Asn-DDAVP in amounts of from 20 to 200 micrograms was administered perorally in 50 milliliters of distilled water. The DDAVP and 4-Asn-DDAVP were supplied by Ferring AB in lyophilized powder form which could easily be dissolved in water. The water diuresis was followed continually up to 6 hours.

healthy subjects [3] = experiment: Water diuresis in overhydrated subjects after injection through a duodenal tube; format: in vivo, human; conditions: 200 micrograms in 10 ml water through duodenal tube, two subjects
Protocol: Two of the subjects were supplied with a duodenal tube which was inserted through the nose. The end of the tube was placed with the help of X-rays in the distal part of the duodenum. Overhydration and urine sampling were then carried out as described above. […] After this, 200 micrograms of DDAVP dissolved in 10 milliliters of water were injected through a tube.

Molecule	antidiuretic activity [1]	side-effects (healthy subjects [2]; human, in vivo)	therapeutic (antidiuretic) effect (healthy subjects [2]; peroral, 20 microgram dosage)	dose dependence of antidiuretic response (magnitude and duration) (healthy subjects [2]; peroral, 20 to 200 micrograms in 50 ml distilled water)	duration of antidiuretic effect (healthy subjects [2]; peroral, 20 to 200 micrograms, diuresis followed up to 6 hours)	antidiuretic response with increase in osmolality and conductivity of urine (healthy subjects [3])	therapeutic (antidiuretic) effect (healthy subjects [2]; oral, dose of 100 micrograms)	antidiuretic effect (healthy subjects [2]; oral, doses 20 to 200 micrograms, effect only with the highest dose)
NC(=O)CC[C@@H]1NC(=O)[C@H](Cc2ccccc2)NC(=O)[C@H](Cc2ccc(O)cc2)NC(=O)CCSSC[C@@H](C(=O)N2CCC[C@H]2C(=O)N[C@H](CCCN=C(N)N)C(=O)NCC(N)=O)NC(=O)[C@H](CC(N)=O)NC1=O [DDAVP, 1-deamino-8-D-arginine vasopressin]	high and specific antidiuretic activity	no side-effects were experienced	therapeutic effect was obtained	dosedependent effect	at least 6 hours	immediate antidiuretic response	–	–
1-deamino-4-asparagine-8-D-arginine-vasopressin [Example 4-Asn-DDAVP]	–	–	–	–	–	–	no therapeutic effect	only a moderate, extremely short-lived, effect
